According to US20220340875A1, “METHODS OF CULTURING AND/OR EXPANDING STEM CELLS AND/OR LINEAGE COMMITTED PROGENITOR CELLS USING AMIDO COMPOUNDS” (IDEAYA BIOSCIENCES, INC., priority 2018, published 2022):

These compounds were tested against T1, hAhR (Homo sapiens, UniProt P35869) (assay: AhR DRE-luciferase reporter transcriptional assay, antagonist mode (TCDD-induced)). Settings: HEPG2 DRE-Luc cells, 3 nM TCDD, 24 hour incubation, relative IC50.
T1 construct: Stably integrated DRE-luciferase cell lines were generated by transducing the both cell lines with Cignal XRE luciferase reporter (Qiagen) lentiviral particles; endogenous in cells
T1 sequence (P35869 11-848): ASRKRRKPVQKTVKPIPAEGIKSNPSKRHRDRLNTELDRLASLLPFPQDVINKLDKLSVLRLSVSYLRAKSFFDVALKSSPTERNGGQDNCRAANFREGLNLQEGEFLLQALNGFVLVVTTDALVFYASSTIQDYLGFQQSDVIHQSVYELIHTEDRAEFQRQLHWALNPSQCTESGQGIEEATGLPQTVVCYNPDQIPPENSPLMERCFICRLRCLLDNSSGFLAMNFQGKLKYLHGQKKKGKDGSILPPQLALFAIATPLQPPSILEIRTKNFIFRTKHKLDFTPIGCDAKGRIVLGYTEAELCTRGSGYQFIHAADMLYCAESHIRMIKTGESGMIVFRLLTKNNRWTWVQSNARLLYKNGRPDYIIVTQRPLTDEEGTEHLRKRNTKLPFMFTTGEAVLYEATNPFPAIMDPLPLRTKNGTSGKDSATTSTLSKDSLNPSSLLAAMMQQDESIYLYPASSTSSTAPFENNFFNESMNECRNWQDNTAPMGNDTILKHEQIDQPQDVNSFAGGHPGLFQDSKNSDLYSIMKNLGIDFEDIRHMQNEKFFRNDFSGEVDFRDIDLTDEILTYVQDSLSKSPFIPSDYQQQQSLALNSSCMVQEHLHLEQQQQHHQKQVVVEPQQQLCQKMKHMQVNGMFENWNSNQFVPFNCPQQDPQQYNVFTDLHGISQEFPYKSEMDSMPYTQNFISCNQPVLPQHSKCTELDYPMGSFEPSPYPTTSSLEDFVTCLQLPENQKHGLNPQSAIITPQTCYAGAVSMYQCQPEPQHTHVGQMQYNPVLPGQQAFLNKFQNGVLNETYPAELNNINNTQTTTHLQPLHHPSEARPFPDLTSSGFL
Format: cell-based
In short: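 HepG2 cells carrying a stably integrated DRE-luciferase reporter, in OptiMEM with 0.5% FBS; semi-log compound doses added with 3 nM TCDD, 24 h incubation, firefly luciferase read-out. Percent maximal activity normalised between vehicle ± TCDD; relative IC50 taken as half-reduction between curve plateaus.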

Row | Structure (SMILES) | IC50
1 | Cc1cc(-c2ncc3cc(C(F)(F)F)ccc3n2)ccc1N1CCNC1=O [Example 141, 1-(2-methyl-4-(6-(trifluoromethyl)quinazolin-2-yl)phenyl)imidazolidin-2-one] | < 200 nM
2 | Cc1cc(-c2ccc3ccn(C)c3c2)ccc1NC(=O)c1ccnn1C [Example 082, 1-Methyl-N-(2-methyl-4-(1-methyl-1H-indol-6-yl)phenyl)-1H-pyrazole-5-carboxamide] | 500 to 1000 nM
3 | Cc1cc(-c2ncc3nc(C(F)(F)F)cc(C)c3n2)ccc1NC(=O)c1ccnn1CC(N)=O [Example 170, 1-(2-amino-2-oxoethyl)-N-(2-methyl-4-(8-methyl-6-(trifluoromethyl)-pyrido[3,2-d]pyrimidin-2-yl)phenyl)-1H-pyrazole-5-carboxamide] | < 200 nM
4 | Cc1cc(-c2ccc3cc(C(F)(F)F)cc(C)c3n2)ccc1N(C)C(=O)c1ccnn1C [Example 202, N,1-dimethyl-N-(2-methyl-4-(8-methyl-6-(trifluoromethyl)quinolin-2-yl)phenyl)-1H-pyrazole-5-carboxamide] | < 200 nM
5 | Cc1cc(-c2cc(C)c3ccccc3n2)ccc1NC(=O)c1ccnn1C [Example 016, 1-Methyl-N-(2-methyl-4-(4-methylquinolin-2-yl)phenyl)-1H-pyrazole-5-carboxamide] | 500 to 1000 nM
6 | Cc1cc(C(=O)N(C)c2ccc(-c3ncc4cc(C(F)(F)F)ccc4n3)cc2C)ccn1 [Example 120, N,2-dimethyl-N-(2-methyl-4-(6-(trifluoromethyl)quinazolin-2-yl)phenyl)isonicotinamide] | < 200 nM
7 | Cc1cc(-c2ncc3cc(C(F)(F)F)ccc3n2)ccc1NC(=O)c1c(C)cnn1C [Example 215, 1,4-dimethyl-N-(2-methyl-4-(6-(trifluoromethyl)quinazolin-2-yl)phenyl)-1H-pyrazole-5-carboxamide] | < 200 nM
8 | Cc1cc(-c2ncc3cc(C(F)(F)F)ccc3n2)ccc1N(C)C(=O)c1nn(C)cc1C [Example 214, N,1,4-trimethyl-N-(2-methyl-4-(6-(trifluoromethyl)quinazolin-2-yl)phenyl)-1H-pyrazole-3-carboxamide] | 200 to 500 nM
9 | COc1cccc2ccc(-c3ccc(NC(=O)c4ccnn4C)c(C)c3)nc12 [Example 056, N-(4-(8-methoxyquinolin-2-yl)-2-methylphenyl)-1-methyl-1H-pyrazole-5-carboxamide] | 500 to 1000 nM
10 | Cc1cc(-c2ncc3cc(C(F)(F)F)ccc3n2)ccc1N(C)C(=O)c1ccnn1Cc1nnn[nH]1 [Example 158, 1-((1H-tetrazol-5-yl)methyl)-N-methyl-N-(2-methyl-4-(6-(trifluoromethyl)-quinazolin-2-yl)phenyl)-1H-pyrazole-5-carboxamide] | 1000 to 10000 nM
11 | Cc1cc(C(=O)Nc2ccc(-c3ncc4cc(C(F)(F)F)ccc4n3)cc2C)ccn1 [Example 119, 2-methyl-N-(2-methyl-4-(6-(trifluoromethyl)quinazolin-2-yl)phenyl)isonicotinamide] | < 200 nM
12 | Cc1cc(-c2ncc3nc(C(F)(F)F)cc(C)c3n2)ccc1N(C)C(=O)c1cc(C(N)=O)nn1CCO [Example 200, 1-(2-hydroxyethyl)-N5-methyl-N5-(2-methyl-4-(8-methyl-6-(trifluoromethyl)pyrido[3,2-d]pyrimidin-2-yl)phenyl)-1H-pyrazole-3,5-dicarboxamide] | < 200 nM
13 | CN(C(=O)c1ccnn1C)c1ccc(-c2ncc3nc(C(F)(F)F)ccc3n2)cc1F [Example 138, N-(2-fluoro-4-(6-(trifluoromethyl)pyrido[3,2-d]pyrimidin-2-yl)phenyl)-N,1-dimethyl-1H-pyrazole-5-carboxamide] | < 200 nM
14 | Cc1cc(-c2ccc3cc(C(F)(F)F)ccc3n2)ccc1N(C)C(=O)c1ccnn1CCO [Example 209, 1-(2-hydroxyethyl)-N-methyl-N-(2-methyl-4-(6-(trifluoromethyl)quinolin-2-yl)phenyl)-1H-pyrazole-5-carboxamide] | < 200 nM
15 | Cc1cc(-c2ccc3nc(C(F)(F)F)ccc3n2)ccc1NC(=O)c1ccnn1C [Example 102, 1-methyl-N-(2-methyl-4-(6-(trifluoromethyl)-1,5-naphthyridin-2-yl)phenyl)-1H-pyrazole-5-carboxamide] | < 200 nM
16 | Cc1cc(-c2ccc3cc(OC(F)(F)F)ccc3n2)ccc1N(C)C(=O)c1ccnn1C [Example 010, N,1-dimethyl-N-(2-methyl-4-(6-(trifluoromethoxy)quinolin-2-yl)phenyl)-1H-pyrazole-5-carboxamide] | 200 to 500 nM
17 | Cc1cc(-c2ccc3cc(N4CCOCC4)ccc3n2)ccc1NC(=O)c1ccnn1C [Example 071, 1-methyl-N-(2-methyl-4-(6-morpholinoquinolin-2-yl)phenyl)-1H-pyrazole-5-carboxamide] | 200 to 500 nM
18 | Cc1cc(NC(=O)c2ccnn2C)cnc1-c1ccc2cc(F)ccc2n1 [Example 046, N-(6-(6-fluoroquinolin-2-yl)-5-methylpyridin-3-yl)-1-methyl-1H-pyrazole-5-carboxamide] | 500 to 1000 nM
19 | Cc1cc(-c2ccc3cc(F)ccc3n2)ccc1NC(=O)c1cnccn1 [Example 032, N-(4-(6-fluoroquinolin-2-yl)-2-methylphenyl)pyrazine-2-carboxamide] | 500 to 1000 nM
20 | Cc1cc(-c2ccc3cc(F)cc(C4CC4)c3n2)ccc1NC(=O)c1ccnn1C [Example 053, N-(4-(8-cyclopropyl-6-fluoroquinolin-2-yl)-2-methylphenyl)-1-methyl-1H-pyrazole-5-carboxamide] | 500 to 1000 nM
21 | Cc1cc(-c2ccc3cc(F)ccc3n2)ccc1NC(=O)c1cocn1 [Example 036, N-(4-(6-fluoroquinolin-2-yl)-2-methylphenyl)oxazole-4-carboxamide] | 500 to 1000 nM
22 | CNC(=O)N(C)c1ccc(-c2ncc3cc(C(F)(F)F)ccc3n2)cc1C [Example 127, 1,3-dimethyl-1-(2-methyl-4-(6-(trifluoromethyl)quinazolin-2-yl)phenyl)urea] | < 200 nM
23 | Cc1cc(-c2ccc3cccc(C)c3n2)ccc1NC(=O)OC(C)(C)C [Example 017, tert-butyl (2-methyl-4-(8-methylquinolin-2-yl)phenyl)carbamate] | 1000 to 10000 nM
24 | CNC(=O)c1cc(C(=O)Nc2ccc(-c3ncc4nc(C(F)(F)F)cc(C)c4n3)cc2C)ccn1 [Example 167, N2-methyl-N4-(2-methyl-4-(8-methyl-6-(trifluoromethyl)pyrido[3,2-d]pyrimidin-2-yl)phenyl)pyridine-2,4-dicarboxamide] | < 200 nM
25 | Cc1cc(-c2nc(N)c3nc(C(F)(F)F)cc(C)c3n2)ccc1N(C)C(=O)c1ccnn1C [Example 154, N-(4-(4-amino-8-methyl-6-(trifluoromethyl)pyrido[3,2-d]pyrimidin-2-yl)-2-methylphenyl)-N,1-dimethyl-1H-pyrazole-5-carboxamide] | < 200 nM
26 | Cc1nc(NC(=O)c2ccnn2C)ccc1-c1ccc2cc(F)ccc2n1 [Example 044, N-(5-(6-fluoroquinolin-2-yl)-6-methylpyridin-2-yl)-1-methyl-1H-pyrazole-5-carboxamide] | 1000 to 10000 nM
27 | Cc1c(-c2ccc3cc(C(F)(F)F)ccc3n2)ccc(NC(=O)c2ccnn2C)c1F [Example 005, N-(2-fluoro-3-methyl-4-(6-(trifluoromethyl)quinolin-2-yl)phenyl)-1-methyl-1H-pyrazole-5-carboxamide] | 1000 to 10000 nM
